The target in data set [1] is T1, human soluble guanylate cyclase alpha 1 and beta 1 subunits (sGC) (Homo sapiens, UniProt Q02108+Q02153).
T1 construct: expressed in transfected cells; host or cells: Chinese hamster ovary (CHO) cells, stably transfected
T1 sequence (Q02108 1-690): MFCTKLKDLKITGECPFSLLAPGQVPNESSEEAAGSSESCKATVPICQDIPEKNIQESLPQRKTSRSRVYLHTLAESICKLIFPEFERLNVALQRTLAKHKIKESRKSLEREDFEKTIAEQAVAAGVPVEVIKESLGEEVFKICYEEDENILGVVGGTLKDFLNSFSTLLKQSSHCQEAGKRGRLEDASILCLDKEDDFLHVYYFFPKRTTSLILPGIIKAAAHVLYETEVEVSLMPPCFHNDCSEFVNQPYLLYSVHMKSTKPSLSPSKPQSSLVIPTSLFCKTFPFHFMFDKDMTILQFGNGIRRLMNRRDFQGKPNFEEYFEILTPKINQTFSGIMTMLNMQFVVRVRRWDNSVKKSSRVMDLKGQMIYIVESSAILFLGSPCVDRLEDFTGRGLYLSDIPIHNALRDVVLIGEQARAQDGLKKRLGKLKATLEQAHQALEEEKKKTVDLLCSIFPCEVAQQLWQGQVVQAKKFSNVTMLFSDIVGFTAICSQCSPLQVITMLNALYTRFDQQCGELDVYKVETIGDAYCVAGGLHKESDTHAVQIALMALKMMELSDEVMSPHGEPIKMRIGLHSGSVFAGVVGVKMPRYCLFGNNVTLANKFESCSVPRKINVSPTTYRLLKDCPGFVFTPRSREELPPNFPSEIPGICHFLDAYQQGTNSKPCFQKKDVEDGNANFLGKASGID
T1 sequence (Q02153 1-619): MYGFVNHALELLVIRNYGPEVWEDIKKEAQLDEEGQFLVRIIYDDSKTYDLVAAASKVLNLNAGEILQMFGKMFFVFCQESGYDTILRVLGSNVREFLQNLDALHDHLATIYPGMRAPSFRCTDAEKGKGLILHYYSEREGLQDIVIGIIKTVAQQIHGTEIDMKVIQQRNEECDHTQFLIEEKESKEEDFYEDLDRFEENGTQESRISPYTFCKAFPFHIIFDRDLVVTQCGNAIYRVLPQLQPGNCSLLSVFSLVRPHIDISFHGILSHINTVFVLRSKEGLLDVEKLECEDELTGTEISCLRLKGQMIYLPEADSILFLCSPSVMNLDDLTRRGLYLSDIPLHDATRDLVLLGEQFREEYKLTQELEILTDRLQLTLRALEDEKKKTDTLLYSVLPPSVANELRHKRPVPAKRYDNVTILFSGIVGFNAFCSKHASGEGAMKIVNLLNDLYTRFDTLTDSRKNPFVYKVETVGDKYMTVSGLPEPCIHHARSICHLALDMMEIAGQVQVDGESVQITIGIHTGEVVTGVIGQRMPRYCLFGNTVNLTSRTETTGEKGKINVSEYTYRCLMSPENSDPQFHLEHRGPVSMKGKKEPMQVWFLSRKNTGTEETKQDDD
The data set can be described thus: sGC cellular activator assay (cGMP, HTRF). Type of data set: cell-based. To be noted: CHO cells stably expressing human sGC alpha 1/beta 1, preincubated with 40 microM ODQ; cGMP readout; assay run with and without 50% human serum, Table 2 does not say which. Put shortly: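 First, CHO-sGC (human α1β1) cells get 1 h ODQ at 40 microM with IBMX and 0.1% BSA. Finally, cGMP is quantified by HTRF and EC50 computed.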

Data set [2] can be described thus: human liver microsome (HLM) metabolic stability assay. The note with it: human liver microsomes; % hepatic blood flow calculated from t1/2. The class given is in vitro ADME. Put shortly: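 Compounds at 1 uM incubated with human liver microsomes plus NADPH at 37° C., sampled at 0, 5, 15, 30 and 60 min into cold acetonitrile and quantified by LC/MS/MS. t½ from the slope of ln % remaining vs time; CLint, CLh and % Qh derived from it (n=1).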

The values that follow come from patent US8906904B2, “Alkoxy pyrazoles as soluble guanylate cyclase activators” (Boehringer Ingelheim International GmbH, priority 2012, dated 2014).

For `COc1c(C(=O)O)cnn1-c1cccc(-c2cccc(C)c2OCc2ccc3c(c2C(F)(F)F)CCN(C2CCOCC2)C3)n1` [Compound 166], the response in data set [1] was half-maximal at 6.6 nM (EC50). Moreover, the “HLM (% Qh)” value in data set [2] is listed as 27 % Qh.
On the same counts, the results for `COc1c(C(=O)O)cnn1-c1cccc(-c2cccc(C)c2OCc2ccc3c(c2C)CCN(C2CCOCC2)C3=O)n1` [Compound 167, 5-Methoxy-1-(6-{3-methyl-2-[5-methyl-1-oxo-2-(tetrahydro-pyran-4-yl)-1,2,3,4-tetrahydro-isoquinolin-6-ylmethoxy]-phenyl}-pyridin-2-yl)-1H-pyrazole-4-carboxylic acid] are 30 nM and less than 24 % Qh.
On to `CCOc1c(C(=O)O)cnn1-c1cccc(-c2cccc(C)c2OCc2ccc3c(c2C)CCN(CCOCCO)C3)n1` [Compound 168], for which, in data set [1], the EC50 was determined as 580 nM. In addition, the “HLM (% Qh)” value in data set [2] is recorded as less than 24 % Qh.
`CCOc1c(C(=O)O)cnn1-c1cccc(-c2cccc(C)c2OCc2cc(C)c3c(c2)CCN(C2CCOCC2)C3)n1` [Compound 169] showed an EC50 in data set [1] of 13 nM. Besides, the “HLM (% Qh)” value in data set [2] is on record as less than 24 % Qh.
In turn, `CCOc1c(C(=O)O)cnn1-c1cccc(-c2cccc(C)c2OCc2ccc3c(c2C)CCN(C[C@H]2COCCO2)C3)n1` [Compound 170] showed an EC50 in data set [1] of 28 nM. Moreover, the “HLM (% Qh)” value in data set [2] is less than 24 % Qh.
On the same counts, the results for `COc1c(C(=O)O)cnn1-c1cccc(-c2cccc(C)c2OCc2cc(C)c3c(c2)CCN(C2CCOCC2)C3)n1` [Compound 171] are 16 nM and less than 24 % Qh.
Turning to `CCOc1c(C(=O)O)cnn1-c1cccc(-c2cccc(C)c2OCc2ccc3c(c2C)CCN(CC2CCOCC2)C3)n1` [Compound 172], the EC50 in data set [1] turned out to be 50 nM. In data set [2], the “HLM (% Qh)” value is reported as less than 24 % Qh.
`CCOc1c(C(=O)O)cnn1-c1cccc(-c2cccc(C)c2OCc2cc(C)c3c(c2)CCN(C2CCCOC2)C3)n1` (stereo not shown) [Compound 173] came in with an EC50 in data set [1] of 13 nM. In addition, in data set [2], the “HLM (% Qh)” value was less than 24 % Qh.
On the same counts, the results for `CCOc1c(C(=O)O)cnn1-c1cccc(-c2cccc(C)c2OCc2cc(C)c3c(c2)CCN(C2COC2)C3)n1` [Compound 174] are 14 nM and less than 24 % Qh.
On the same counts, the results for `CCOc1c(C(=O)O)cnn1-c1cccc(-c2cccc(C)c2OCc2ccc3c(c2C)CCN(C2COC2)CC3)n1` [Compound 175] are 40 nM and 31 % Qh.
On the same counts, the results for `COc1c(C(=O)O)cnn1-c1cccc(-c2cccc(C)c2OCc2ccc3c(c2C)CCN(C2COC2)CC3)n1` [Compound 176] are 9.7 nM and 28 % Qh.
In turn, `COc1c(C(=O)O)cnn1-c1cccc(-c2cccc(C)c2OCc2ccc3c(c2F)CCN(C2COC2)C3)n1` [Compound 177] came in with an EC50 in data set [1] of 35 nM. For the same molecule, in data set [2], the “HLM (% Qh)” value is less than 24 % Qh.
On the same counts, the results for `COc1c(C(=O)O)cnn1-c1cccc(-c2cccc(C)c2OCc2cc(C)c3c(c2C)CCN(C2COC2)C3)n1` [Compound 178] are 14 nM and less than 24 % Qh.
In turn, `CCOc1c(C(=O)O)cnn1-c1cccc(-c2cccc(C)c2OCc2ccc3c(c2C)CCN(C[C@H]2COC(C)(C)O2)C3)n1` [Compound 179] gave an EC50 in data set [1] of 59 nM. The “HLM (% Qh)” value in data set [2] is recorded as less than 24 % Qh.
